Source: PMC5487955, “Microarray Selection of Cooperative Peptides for Modulating Enzyme Activities” (Microarrays, 2017)
pIC50: −log10 of the molar value. Several values for one entry are separate records, joined by “and”; a condition that tells them apart may be missing. Equal values may be shown once. Where no end group is shown, it is not given here.

Legend:
[1] = tested on: crosslinked PEP-1–β-Gal complex; assay: Peptide microarray binding of crosslinked PEP-1–β-Gal complex; conditions: negative control selection
Experimental: Firstly, 20 μM PEP-1 (sequence of “RVFKRKRWLHVSRYYFGSC”) was incubated with 30 nM β-Gal for 20 min, and then 0.5% formaldehyde was added to the peptide/enzyme mixture. It was then incubated for another 20 min in order to crosslink the peptide with enzyme. The entire mixture was then diluted by 100 × in phosphate buffer to bring the overall peptide concentration as low as 200 nM.

[2] = tested on: inhibited PEP-1–β-Gal complex; assay: Recovery of PEP-1 inhibited enzyme activity; type: biochemical; conditions: 320 μM NEG added, incubated another 20 min; 1 nM β-Gal preincubated with PEP-1 for 20 min
Experimental: (§1) Solution-based enzyme assays were performed on SpectraMax M5 96 well plate readers (Molecular Device, Sunnyvale, CA, USA) as described previously. Simply explained, peptides were first incubated with enzyme for 20 min, and then the substrate solution was added into the wells to measure the enzyme activity. At least three replicates per peptide were included. The β-gal-catalyzed hydrolysis of RBG was fluorescently monitored at 590 nm (resorufin) with the excitation at 540 nm. For a typical assay, ~0.3 nM or 1 nM β-Gal was incubated with peptides and 100 μM RBG substrate in pH 7.4, 10 mM potassium phosphate buffer with 100 μM MgCl2 at 25 °C. The reaction rate was determined by the initial velocity of the linear reaction. The percentage of reduced/inhibited enzyme activity was calculated as below: Percentage of reduced activity=(1−Inhibited activity/Noninhibited activity)×100%
For recovery of PEP-1 inhibited enzyme activity, 1 nM β-Gal was first incubated with PEP-1 for 20 min for inhibiting activity, and then NEG peptide was added to the solution and incubated for another 20 min before the activity assay.

[3] = biological target: T1, β-galactosidase (β-Gal) (Escherichia coli, UniProt P00722); conditions: negative control selection
T1 sequence (P00722 2-1024): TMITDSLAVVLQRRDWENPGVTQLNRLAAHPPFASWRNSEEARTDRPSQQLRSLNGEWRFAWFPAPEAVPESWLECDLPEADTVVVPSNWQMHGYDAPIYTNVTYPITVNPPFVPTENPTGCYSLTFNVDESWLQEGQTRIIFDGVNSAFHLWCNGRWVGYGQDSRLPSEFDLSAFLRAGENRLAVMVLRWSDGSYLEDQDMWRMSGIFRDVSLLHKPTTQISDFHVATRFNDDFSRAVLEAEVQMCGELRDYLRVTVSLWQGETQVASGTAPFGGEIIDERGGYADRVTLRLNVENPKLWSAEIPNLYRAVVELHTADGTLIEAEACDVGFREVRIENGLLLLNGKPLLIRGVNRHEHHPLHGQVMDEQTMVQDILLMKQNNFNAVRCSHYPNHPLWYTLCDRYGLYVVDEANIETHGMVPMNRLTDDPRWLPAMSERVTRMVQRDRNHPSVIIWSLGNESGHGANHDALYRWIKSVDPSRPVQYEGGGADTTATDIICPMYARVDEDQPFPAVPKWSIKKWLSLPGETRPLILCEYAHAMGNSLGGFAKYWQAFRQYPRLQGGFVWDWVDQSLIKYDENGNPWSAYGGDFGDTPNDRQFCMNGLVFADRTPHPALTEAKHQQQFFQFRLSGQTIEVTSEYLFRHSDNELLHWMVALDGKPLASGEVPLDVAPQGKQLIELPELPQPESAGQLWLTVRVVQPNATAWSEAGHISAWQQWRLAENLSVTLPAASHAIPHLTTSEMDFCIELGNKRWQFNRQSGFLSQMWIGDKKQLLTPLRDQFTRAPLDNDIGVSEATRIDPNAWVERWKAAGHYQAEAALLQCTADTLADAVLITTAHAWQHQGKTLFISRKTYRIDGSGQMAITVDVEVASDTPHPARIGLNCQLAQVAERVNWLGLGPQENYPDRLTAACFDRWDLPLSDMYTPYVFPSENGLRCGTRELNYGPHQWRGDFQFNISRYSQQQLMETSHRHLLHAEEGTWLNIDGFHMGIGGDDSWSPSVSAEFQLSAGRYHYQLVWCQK
Text: Microarrays of 10,000 20-mer peptides were produced by Arizona State University as previously reported [14, 17]. […] Each polypeptide was 20 residues in length, with 17 positions randomly chosen from a set of 19 amino acids (excluding cysteine). The C-terminal 3 positions of each peptide was a glycine–serine–cysteine (GSC) linker, which was used for conjugating peptides to amino-silane surfaces via a maleimide linker, sulfosuccinimidyl 4-(N-maleimidomethyl)cyclohexane-1-carboxylate (Sulfo-SMCC; Pierce, Rockford, IL, USA). The array printing was performed by using a Telechem Nanoprint60 (Arrayit, Sunnyvale, CA, USA) hat spotted approximately 500 pL of 1 mg/mL peptide per feature on glass slides with 48 Telechem series SMP2-style 946 titanium pins (Arrayit).
Binding of enzymes on the microarray was performed as previously described [17, 18]. […] Then, the array was incubated with a solution containing 5 nM Alexa 647-labeled β-Gal or PEP-1–β-Gal complex for two hours, allowing the enzyme to bind with peptides on the array surface. After washing off unbound enzymes, the array was read by a standard array reader (PerkinElmer, Waltham, MA, USA) with color scanning using 647 nm laser lines.

[4] = biological target: T1, β-galactosidase (β-Gal); assay: biochemical; design: purchased Sigma (St. Louis, MO, USA); conditions: for reduction of enzyme activity, combination with PEP-1: 100 μM NEW peptide + 2 μM PEP-1; for reduction of enzyme activity, NEW peptide alone: 100 μM peptide by itself, pH 7.4 10 mM potassium phosphate, 100 μM MgCl2, 25 °C, at least three replicates
Experimental: as §1, with “activity)×100% […]” for “activity)×100%”
Figure S1. Titration of IC 50 for PEP-1. The IC 50 of peptide inhibition is measured at a substrate concentration of 100 μM RBG (resorufin β -D-galactopyranoside) and β-Gal concentration of 150 μg/L, 25 °C. All tests included three replicates. Error bar: range of data.
The IC50 of each inhibitor was determined by fitting the concentration vs. inhibition curve to the function ‘Fit LogIC50’ as defined in the program GraphPad Prism 7 using the fitting equation “Y=Bottom+(Top-Bottom)/(1+10^(X-LogIC50))”. The “Bottom” term was constrained to 1, which represents the maximal inhibition of 100%. The “Top” term was constrained to 0, which represents the minimal inhibition of 0%.
The enzyme inhibition was also quantitatively characterized using the inhibition percentage that was calculated using the following equation:
Inhibition Percentage = (Activity uninhibited – Activity inhibited)/ Activity uninhibited × 100%
(1 picture or pasted object on this page, not shown here)

[5] = 100 μM RBG, pH 7.4, 25 °C, 20 min preincubation
[6] = 100 μM RBG, 20 min preincubation

Sequence | reduction of enzyme activity, combination with PEP-1 [4, 5] | reduction of enzyme activity, NEW peptide alone [4, 6] | other results
ESVPTDLPMDTMEGKNWGSC [NEG, negatively-charged negative control peptide] | – | – | binding to crosslinked PEP-1–β-gal complex on microarray (in words) [1]: did not show strong binding; activity of inhibited PEP-1–β-Gal complex, % of uninhibited enzyme [2]: ~45%; binding to β-Gal on microarray (in words) [3]: neither bound to β-Gal; inhibition of β-Gal activity, NEG combined with PEP-1 ([4]; 10 μM NEG + 2 μM PEP-1): 24%; inhibition of β-Gal, NEG combined with PEP-1 (in words) ([4]; 100 μM NEG + 2 μM PEP-1): almost lost the ability to inhibit β-Gal
GVSHLHWIKMLNETTVMGSC [NEW-1] | ~ 70% | less than 10% | –
HISPQHMMAYSPKAFDYGSC [NEW-2] | ~ 73% | ~ 12% | –
MHNHAFNDNHGRGPTAWGSC [NEW-4] | 91% | ~ 26% | –
RVFKRKRWLHVSRYYFGSC [PEP-1] | – | – | pIC50 [4]: ~5.80; reduction of enzyme activity, PEP-1 by itself ([4]; 2 μM PEP-1 alone, 100 μM RBG, pH 7.4, 25 °C, 20 min preincubation): ~ 57% and 57%
YDTLHRNRQMMDWQFEPGSC [NEW-3] | ~ 86% | ~ 19% | –
